Measured values reported in patent US10273235B2, “Compositions and methods for inhibiting β-lactamase” (LegoChem Biosciences, Inc., priority 2015, dated 2019).
Structures can show the parent of a compound that is named as a salt.

Tests used:
[1] = target: T1, NDM-1 β-lactamase (class B) (Klebsiella pneumoniae, UniProt C7C422); assay: Inhibitory activity against β-lactamases (nitrocefin), NDM-1; assay type: biochemical; conditions: 100 μM nitrocefin, 30° C., pH 6.8
T1 construct: MICs of bacterial strains used for extraction of enzymes; endogenous in cells; host or cells: bacterial strain carrying NDM-1 (E. coli according to the earlier reading)
Procedure: (§1) More diluted stocks were prepared as necessary. Enzyme activity was determined by monitoring the change of absorbance at 492 nm using the characteristic molecular extinction coefficient (Δε492=17,400 M^−1 cm^−1) of nitrocefin by a Shimazu UV-1650PC spectrophotometer. The nitrocefin was purchased from OXOID. Kinetic measurements were run at 30° C. in 10 mM MES[2-(N-morpholino)ethanesulfonic acid]buffer (pH 6.8) or 10 mM MES[2-(N-morpholino)ethanesulfonic acid] buffer (pH 6.8), […] BSA and 50 mM sodium bicarbonate. Reactions were performed in 2.5 mL cuvettes with 100 μM nitrocefin and initiated by adding 1.5 nM to 2.5 nM enzyme. The first 180 s of each reaction was used to measure initial rates. Data were evaluated using Microsoft Excel. Concentration dependent inhibition of enzyme was measured using different concentrations of inhibitors resulting from two-fold dilution series. Reaction progress at every concentration of inhibitor was measured in triplicates. IC50 values were calculated using 4-parameter log fits using XL Fit curve fitting software (www.idbs.com) for Excel using the following equation:
(§2) [formula] where y is the remaining enzyme activity (in %) and x is the corresponding concentration. he fitted IC50 parameter is the relative IC50, and is defined as the concentration giving a response half way between the fitted top (B) and bottom (A) of the curve.

E. coli K0519020 = assay: MIC of strain used for extraction of enzymes, E. coli K0519020 (CTX-M-15, TEM-1, OXA-1, AmpC (NC_000913)); assay type: cell-based
[2] = target: KPC-3 β-lactamase (class A) (Klebsiella pneumoniae, UniProt Q9F663, H272Y); assay: Inhibitory activity against β-lactamases (nitrocefin), KPC-3; assay type: biochemical, K. pneumoniae
Procedure: as §1, §2

E. coli ECO200 = assay: MIC of strain used for extraction of enzymes, E. coli ECO200 (NDM-1, TEM-1, CTX-M-15, EC (AmpC), OXA-2 type); assay type: cell-based
E. coli TOPDXA048 = assay: MIC of strain used for extraction of enzymes, E. coli TOPDXA048 (OXA-48, TEM-116, AmpC (NC_000913)); assay type: cell-based
K. pneumoniae CL5761 = assay: MIC of strain used for extraction of enzymes, K. pneumoniae CL5761 (KPC-3, TEM-216, SHV-5); assay type: cell-based; conditions: BLI: 4 ug/mL
Procedure: MIC90 (μg/mL) is the lowest concentration of an antibiotic that will inhibit the visible growth of 90% of microorganisms after incubation as compared with a control group to which the antibiotic is not treated.
MIC values were measured by the broth microdilution method developed by the Clinical and Laboratory Standards Institute (CLSI) (see CLSI M07-A9, Methods for Dilution Antimicrobial Susceptibility Test for Bacteria that Grow Aerobically; Approved Standard-Ninth Edition (2012): CLSI, Villanova, Pa.). The in vitro antibacterial activity was measured with respect to the following 9 clinical isolates: P. aeruginosa (3 strains); K. pneumoniae (6 strains). The in vitro antibacterial activity of selected compounds was measured with respect to the following 15 clinical isolates: K. pneumoniae (15 strains).

[3] = target: T2, OXA-48 β-lactamase (class D) (Klebsiella pneumoniae, UniProt Q6XEC0); assay: Inhibitory activity against β-lactamases (nitrocefin), OXA-48; assay type: biochemical; conditions: 100 μM nitrocefin, 30° C., pH 6.8
T2 construct: MICs of bacterial strains used for extraction of enzymes; endogenous in cells; host or cells: bacterial strain carrying OXA-48 (E. coli according to the earlier reading)
Procedure: as §1, §2

Mouse pharmacokinetics = assay type: in vivo, ICR mouse; conditions: IV, 50 mg/kg, plasma
Procedure: The pharmacokinetics values were evaluated in a mouse model. The test compound (50 mg/kg) was injected into the tail vein of 8 week old ICR mouse, weighing approximately 26-30 g. […] Lab conditions were temperature of 22±3° C. and humidity of 50±20%.

[4] = target: T3, CMY-10 β-lactamase (class C) (Klebsiella aerogenes, UniProt Q99QC1); assay: Inhibitory activity against β-lactamases (nitrocefin), CMY-10; assay type: biochemical
T3 construct: MICs of bacterial strains used for extraction of enzymes; endogenous in cells
Procedure: as §1, §2

E. aerogenes K9911729 = assay: MIC of strain used for extraction of enzymes, E. aerogenes K9911729 (CMY-10, TEM-1, SHV-12, AmpC (DQ478697)); assay type: cell-based

T1 sequence (C7C422 29-270, looked up): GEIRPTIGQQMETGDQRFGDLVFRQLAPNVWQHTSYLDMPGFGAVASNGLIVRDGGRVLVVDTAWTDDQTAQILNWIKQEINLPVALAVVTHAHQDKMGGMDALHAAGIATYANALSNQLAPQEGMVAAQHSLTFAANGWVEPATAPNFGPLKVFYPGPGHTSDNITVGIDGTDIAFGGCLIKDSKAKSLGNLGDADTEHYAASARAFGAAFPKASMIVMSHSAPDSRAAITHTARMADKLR
KPC-3 β-lactamase (class A), sequence (Q9F663 25-293 H272Y): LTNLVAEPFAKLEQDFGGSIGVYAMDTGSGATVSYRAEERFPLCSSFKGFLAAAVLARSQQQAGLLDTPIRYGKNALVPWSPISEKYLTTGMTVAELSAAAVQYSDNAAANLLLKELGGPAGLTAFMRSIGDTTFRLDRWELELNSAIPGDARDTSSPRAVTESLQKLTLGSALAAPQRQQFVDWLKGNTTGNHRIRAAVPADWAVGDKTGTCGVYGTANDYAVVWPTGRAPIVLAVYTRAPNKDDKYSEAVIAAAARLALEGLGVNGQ
T2 sequence (Q6XEC0 23-265, looked up): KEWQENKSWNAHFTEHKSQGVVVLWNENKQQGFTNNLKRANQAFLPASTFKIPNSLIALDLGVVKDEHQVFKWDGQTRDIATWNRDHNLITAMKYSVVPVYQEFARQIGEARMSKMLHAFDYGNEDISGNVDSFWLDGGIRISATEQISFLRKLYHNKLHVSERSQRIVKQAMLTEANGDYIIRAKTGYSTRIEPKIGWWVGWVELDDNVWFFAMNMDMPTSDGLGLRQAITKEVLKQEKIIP
T3 sequence (Q99QC1 24-382): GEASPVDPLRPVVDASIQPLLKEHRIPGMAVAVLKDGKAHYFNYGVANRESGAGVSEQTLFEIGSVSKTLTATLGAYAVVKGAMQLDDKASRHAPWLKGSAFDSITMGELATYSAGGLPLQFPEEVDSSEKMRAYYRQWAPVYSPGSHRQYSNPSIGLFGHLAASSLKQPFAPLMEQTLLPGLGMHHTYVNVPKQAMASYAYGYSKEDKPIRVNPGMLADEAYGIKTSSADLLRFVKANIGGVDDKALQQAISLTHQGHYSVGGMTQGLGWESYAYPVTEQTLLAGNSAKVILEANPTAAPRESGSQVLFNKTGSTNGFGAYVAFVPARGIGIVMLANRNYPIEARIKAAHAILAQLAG

## O=C1N2C[C@@H](CC[C@H]2C2=NO[C@]3(CCNC3)C2)N1OS(=O)(=O)O [Example 17, [(2S,5R)-2-[(5R)-1-oxa-2,7-diazaspiro[4.4]non-2-en-3-yl]-7-oxo-1,6-diazabicyclo[3.2.1]octan-6-yl] hydrogen sulfate]
[1]
  IC50: 1190 µM
E. coli K0519020; BLI: 4 ug/mL
  MIC of Meropenem with BLI: 0.0625 µg/mL
E. coli K0519020; Escherichia coli, K0519020, read-out: MIC of LCB10-0200 with BLI
  MIC: < 0.0312 µg/mL
[2]
  IC50: 2.74 µM
E. coli ECO200; BLI: 4 ug/mL
  MIC of Meropenem with BLI: <0.0312 µg/mL
E. coli ECO200; Escherichia coli, ECO200, read-out: MIC of LCB10-0200 with BLI
  MIC: < 0.0312 µg/mL
E. coli TOPDXA048; BLI: 4 ug/mL
  MIC of Meropenem with BLI: <0.0312 µg/mL
E. coli TOPDXA048; Escherichia coli, TOPDXA048, read-out: MIC of LCB10-0200 with BLI
  MIC: < 0.0312 µg/mL
K. pneumoniae CL5761
  MIC of Meropenem with BLI: 0.5 µg/mL
K. pneumoniae CL5761; Klebsiella pneumoniae, CL5761, read-out: MIC of LCB10-0200 with BLI
  MIC: 0.125 µg/mL
[3]
  IC50: 29.5 µM
Mouse pharmacokinetics; ICR
  AUC(0-inf): 31000 ± 500 ng·h/mL
  Cmax: 64.2 ± 3.88 µg/mL
  Tmax: 4.8 min
  clearance: 27 mL/min/kg
  half-life: 75 ± 9 min
Mouse pharmacokinetics; ICR, read-out: Vss
  Vd: 1.81 ± 0.14 L/kg
Mouse pharmacokinetics
  AUCnorm: 0.62 ± 0.01 kg·h/L
  Cmax, norm: 1.28 ± 0.08 kg/L
[4]
  IC50: 0.185 µM
E. aerogenes K9911729; BLI: 4 ug/mL
  MIC of Meropenem with BLI: <0.0312 µg/mL
E. aerogenes K9911729; Klebsiella aerogenes, K9911729, read-out: MIC of LCB10-0200 with BLI
  MIC: < 0.0312 µg/mL
